The subject of test [1] is PAF-induced platelet aggregation (washed PRP). The experiment in a line: Activity to inhibit PAF in platelet aggregation (washed PRP). The class given is cell-based. Conditions: Oryctolagus cuniculus, male rabbit, compound 3×10^-5 M, PAF 3×10^-5 M, 37° C., read-out: inhibition rate relative to the maximum transmission (maximum aggregation) of control PRP by PAF. How it is done: Activity to inhibit PAF in platelet aggregation
Using an injection syringe containing a 3.15% solution of citric acid (in a ratio of 1 part per 9 parts of blood) as an anticoagulant, the blood was directly collected from a male rabbit. Then, at room temperature, the blood was centrifuged at 1,000 r.p.m. for 10 minutes to harvest a platelet rich plasm (PRP). This PRP was further centrifuged at 1,400 r.p.m. for 15 minutes to give platelet pellets. The pellets were suspended in Ca^++ -free Tyrode solution (containing 0.25% of gelatin) to give a washed PRP. This washed PRP (250 μl) was stirred at 37° C. for 2 minutes, then 25 μl of a 0.2 to 0.5 mM Ca^++ solution was added, and the mixture was further stirred for 30 seconds. Then, the compound obtained in Example 5 was added to a concentration of 3×10^-5 M. After stirring the mixture for 2 minutes, 3×10^-5 M of PAF was added. The degree of platelet aggregation was determined with a platelet aggregometer (Rika Denki). The activity of the test drug was estimated from the inhibition rate relative to the maximum transmission (maximum aggregation) of control PRP by PAF. The inhibition rate thus found was 70%.

In test [2] the test system is PAF-induced platelet aggregation (PRP). The experiment in a line: Activity on inhibiting platelet aggregation (PRP, PAF-induced). In kind it is cell-based. Conditions: male rabbit, PAF 1×10^-8 M, 37° C. The method, then:
Activity on inhibiting platelet aggregation
Using an injection syringe containing 3.15% citric acid (in a ratio of 1 part per 9 parts of blood) as an anticoagulant, the blood was directly collected from a male rabbit. Then, at room temperature, the blood was centrifuged at 800 r.p.m. for 10 minutes to harvest a platelet rich plasma (PRP). The remaining blood was further centrifuged at 3,000 r.p.m. for 10 minutes to separate a platelet poor plasma (PPP) as a supernatant. The PRP was diluted with the PPP to adjust the number of platelets to about 0.5 million (5×10^5) per μl. This PRP (250 μl) was stirred at 37° C. for 2 minutes, and the test compound was added to the PRP. After stirring the mixture for 2 minutes, 1×10^-8 M of PAF was added to the mixture. The degree of platelet aggregation was determined with a platelet aggregometer (Rika Denki). The aggregation inhibitory activity of the test compound was estimated from the inhibition rate relative to the maximum transmission (maximum aggregation) of control PRP by PAF.

Turning to `CCCCCCCCCCCCCCCCCCOCC(COP(=O)([O-])OCC[n+]1ccccc1)N1C(=O)c2ccccc2C1=O` (centres unmarked) [Example 5, 3-Octadecyloxy-2-phthalimidopropyl 2-pyridinioethyl phosphate], in test [1], the inhibition (as a rule, the percentage by which the read-out fell short of the control) at 30 µM was 70%.

As to `CCCCCCCCCCCCCCCCCCOCC(COP(=O)([O-])OCC[n+]1ccsc1)N1C(=O)c2ccccc2C1=O` (centres unmarked) [Example 6, 3-Octadecyloxy-2-phthalimidopropyl 2-thiazolioethyl phosphate], the “Inhibition rate (%)” value in test [2] (test compound 3 × 10^-5 (M)) turned out to be 100%; in test [2] (test compound 3 × 10^-6 (M)), 96%.

For the molecule `CCCCCCCCCCCCCCCCCCOCC(COP(=O)([O-])OCC[n+]1ccsc1)N1C(=O)CCC1=O` (centres unmarked) [Example 12, 3-Octadecyloxy-2-succinimidopropyl 2-thiazolioethyl phosphate], the “Inhibition rate (%)” value in test [2] (test compound 3 × 10^-5 (M)) was found to be 100%; in test [2] (test compound 3 × 10^-6 (M)), 32%.

For the origin of these results see US4650791A, “Certain 3-alkoxy-2-cyclic-imido-propyl-phosphate-ethyl-cyclic ammonium hydroxide inner salts which inhibit activities of platelet activating factor” (Takedo Chemical Industries, Ltd., priority 1984, dated 1987).
